Test results published in article PMC6337631, “Effective Tetradentate Compound Complexes against Leishmania spp. that Act on Critical Enzymatic Pathways of These Parasites” (Molecules, 2018).

Tests used:
[1] = system: J774.2 murine macrophages; assay: Cytotoxicity test on macrophages by flow cytometry; format: cell-based, mouse; conditions: Mus musculus, J774.2 macrophages, 72 h, read-out: Toxicity IC50 Macrophage
Procedure: (§1) The compounds and the reference drug Glu were dissolved in DMSO (Panreac, Barcelona, Spain) and tested from 100 µM to 1 µM with 0.1% (v/v) DMSO final concentration in plates. Therefore, controls were prepared including 0.1% (v/v) of this component, as previously described.
The macrophage line J774.2 [European collection of cell cultures (ECACC) number 91051511] was derived in 1968 from a tumour in a female BALB/c mouse. Macrophages were grown in humidified 95% air, 5% CO2 atmosphere at 37 °C in Minimal Essential Medium (MEM) with 2 mM glutamine and 20% (v/v) inactivated FCS. The cytotoxicity test on macrophages was performed by Flow cytometry analysis according to a method previously described. Briefly, cells were seeded at a density of 5 × 10^4 cells/well in 24-well microplates (Nunc, Naperville, IL, USA). After 48 h incubation, the medium was removed, and fresh medium was added together with each test compound at concentrations from 100 µM to 1 µM and cultured in 500 μL/well volumes for 72 h. Thereafter, cells were recovered by centrifugation, and cell viability was determined by Flow cytometry (FACS Vantage flow cytometer, Becton Dickinson, San Jose, CA, USA) after incubating the cells with propidium iodide ([…]) and fluorescein diacetate (100 ng/mL). The percentage of viability was calculated in comparison with the control cultures. […] Each drug concentration was tested in triplicate in four separate determinations.

[2] = system: Leishmania infantum amastigote forms; assay: Amastigote test (intracellular forms in J774.2 macrophages), L. infantum; format: cell-based; conditions: Leishmania infantum, 72 h, mean ± SD
Procedure: Promastigote forms of three different Leishmania spp., L. donovani (MHOM/PE/84/LC26), L. infantum (MCAN/ES/2001/UCM-10) and L. braziliensis (MHOM/BR/1975/M2904), were cultured in vitro in Medium Trypanosomes Liquid (MTL) supplemented with 10% inactivated foetal calf serum (FCS) in an air atmosphere at 28 °C, in Roux flasks (Corning, Manassas, VA, USA) with a surface area of 75 cm^2, according to [33].
as §1
J774.2 macrophages were grown and seeded at a density of 1 × 10^4 cells/well in 24-well microplates (Nunc) with rounded coverslips on the bottom and cultured for 48 h in humidified 95% air, 5% CO2 atmosphere at 37 °C in Minimal Essential Medium (MEM) with 2 mM glutamine and 20% (v/v) inactivated FCS. Adherent macrophages were infected with metacyclic promastigotes in the stationary growth phase of L. donovani, L. infantum and L. braziliensis at a multiplicity of infection (MOI) ratio of 1:10 and maintained for 24 h. Non-phagocytosed parasites were removed by washing, and after addition of the testing compounds at concentrations from 100 µM to 1 µM, cultured in 500 μL/well volumes. Control cultures were also included. After 72 h incubation, leishmanicidal activity was assessed based on the number of amastigotes in treated and untreated cultures in methanol-fixed and Giemsa-stained preparations by analyzing 500 host cells distributed in randomly chosen microscopic fields. The leishmanicidal effect was calculated as described to determine the leishmanicidal activity in the promastigote forms. Each drug concentration was tested in triplicate in four separate determinations.

[3] = system: L. braziliensis promastigotes; assay: Ultrastructural alterations by TEM, L. braziliensis; format: cell-based, Leishmania braziliensis; conditions: 72 h at IC25 concentration
Procedure: Parasites were cultured at a density of 5 × 10^5 cells/mL with medium containing the tested compounds at IC25 concentrations. After 72 h at 28 °C, the cultures were processed using a technique previously described and analysed by TEM (LIBRA 120 PLUS, Zeiss, Barcelona, Spain).

human CuZn-SOD = target: T1, human CuZn-SOD (Homo sapiens, UniProt P00441); assay: SOD inhibition assay, human CuZn-SOD; format: biochemical; conditions: assayed 100 µM to 0.1 µM; non-linear regression
T1 construct: purchased Sigma Chemical Co. (St. Louis, MO, USA)
T1 sequence (P00441 whole entry): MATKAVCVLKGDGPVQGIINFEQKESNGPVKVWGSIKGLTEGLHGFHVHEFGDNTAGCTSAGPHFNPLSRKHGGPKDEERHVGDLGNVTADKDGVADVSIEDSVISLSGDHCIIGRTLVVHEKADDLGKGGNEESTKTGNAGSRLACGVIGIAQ
Procedure: The previous extraordinary results prompted us to evaluate the inhibitory effect of 3, 5–8 and 10 on the SOD activity. […]
Parasite cells were collected in the exponential growth phase by centrifugation (400g for 10 min). The pellet obtained after centrifugation was lysated by sonication, processed according to [38] and obtained the homogenate fraction which contained the parasite Fe-SOD. The protein content was quantified using the Sigma Bradford test, which uses BSA as a standard (no trace ability was certified for the BSA standard). Superoxide dismutase activities were determined using a method previously described, which measures the reduction in nitrobluetetrazolium (NBT) by superoxide ions. Human CuZn-SOD. Substrates used in these assays were obtained from Sigma Chemical Co. (St. Louis, MO, USA). Resulting data were analysed using the Newman−Keuls test.

CN(C)c1ccnc(CN2CCC[C@H]2[C@@H]2CCCN2Cc2cc(N(C)C)ccn2)c1 [Compound 7]
IC50 [1]: 172 ± 11.3 µM | IC50 [2]: 9 ± 0.4 µM | ultrastructural alterations of L. braziliensis promastigotes (TEM) [3]: damaged, swollen, and full of vacuoles | IC50 (human CuZn-SOD): > 500 µM
